In assay [1] the test system is sonic hedgehog pathway. In words: Hedgehog pathway Gli-luciferase reporter assay, S12 cells. The format is cell-based. Particulars: S12 mouse embryonic mesenchymal cells, read-out: Mouse S12 Avg. EC50. From the text:
Mouse (TM3: mouse Leydig cells; S12: mouse embryonic mesenchymal cells) and human (Daoy: human medulloblastoma cell; HepM: human embryonic palatal mesenchymal cell) cell lines are used to screen small molecules for their ability to modulate the activity of the sonic hedgehog pathway (Table 1, Table 2, and Table 3). Stable hedgehog pathway reporter cell lines are established by specific antibiotic selection following transfection of a reporter plasmid containing a luciferase gene located directly downstream from the gli promoter. Consequently, any observable changes in cellular luciferase activity may be attributed to changes in sonic hedgehog pathway activity in mouse and human cells, respectively, since gli is the major by-product of this pathway. To calculate activity, we generate an eleven point dose curve for each compound using 1:3 dilutions in 96 well assay plates. Each plate tested also contains low and high control to establish maximal pathway activation so to establish/compare a percentage activation of each tested compound (AMAX) on respective plates. Also we calculate EC50 values, or a concentration where the pathway will be exactly 50% activated, for each tested compound to determine potency. In these cell lines, compounds that register >20% AMAX values are considered active.
Stable hedgehog pathway reporter cell lines are established following specific antibiotic selection following transfection of a reporter plasmid In short, typically cells are plated in MicroTiter-plates at 10,000-20,000 cells per well, in growth media (containing 10%-20% FBS). After 48-72 hrs (HGL and DGL respectively) the media in the assay plates is switched to low-serum containing media (0.5% FBS). At that time compounds are added (at 1-5 μM) to the assay plates, in the presence or absence of hedgehog protein (octyl-modified version; 1-5 ng/ml). After another 24 hrs of incubation, the media from the assay plates is discarded and replaced with luciferase assay-mix. Subsequently, plates are incubated at RT for ˜15-30 mins and then read in a luminometer. [note: addition of the Hedgehog protein, although not critical, will sensitize the assay allowing the identification of weak actives].
For orientation: Reporter assays use an easily measured gene product as a stand-in for the process of interest.

Assay [2] relates to sonic hedgehog pathway. In words: Human hedgehog reporter assay Daoy-GliLuc (DGL). Type of assay: cell-based. To be noted: Daoy human medulloblastoma cells, Gli-luciferase reporter; read-out: Human Daoy (Gli-Luc) Avg. EC50. The procedure, abridged:
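Stable Gli-promoter luciferase reporter lines (human HepM, Daoy; mouse S12) plated at 10,000–20,000 cells/well, switched to 0.5% FBS after 48–72 h, then given compound (1–5 μM; 11-point 1:3 dose curves) with or without octyl-modified hedgehog protein (1–5 ng/ml) for 24 h. Luminescence read; AMAX vs plate controls and EC50 derived.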

SMILES strings stand for the structures. pEC50: −log10 of the molar value. Counter-ions that a name gives are not always drawn.

The pEC50 is the EC50 on a negative log10 scale, so that one unit is a factor of ten.

`CN[C@H]1CC[C@@H](N(Cc2cc(-c3ccc(N(C)S(C)(=O)=O)cc3)ccc2OC)C(=O)c2sc3c(F)ccc(F)c3c2Cl)CC1` [Compound 371, 3-Chloro-4,7-difluoro-benzo[b]thiophene-2-carboxylic acid [4′-(methanesulfonyl-methyl-amino)-4-methoxy-biphenyl-3-ylmethyl]-(4-methylamino-cyclohexyl)-amide hydrochloride]: the pEC50 in the assay on sonic hedgehog pathway [1] and in the assay with sonic hedgehog pathway [2] was over 7.30 each time.
As for `CNC1CCC(N(Cc2cc(-c3cccc(SC)c3)ccc2OC)C(=O)c2sc3c(F)ccc(F)c3c2Cl)CC1` (stereo not shown) [Compound 372, 3-Chloro-4,7-difluoro-benzo[b]thiophene-2-carboxylic acid (4-methoxy-3′-methylsulfanyl-biphenyl-3-ylmethyl)-(4-methylamino-cyclohexyl)-amide hydrochloride], the negative-log EC50 (pEC50) with sonic hedgehog pathway [1] and in the assay on sonic hedgehog pathway [2] was over 7.30 throughout.
For the compound `CNC1CCC(N(Cc2cc(-c3ccc(SC)cc3)ccc2OC)C(=O)c2sc3c(F)ccc(F)c3c2Cl)CC1` (stereo not shown) [Compound 373, 3-Chloro-4,7-difluoro-benzo[b]thiophene-2-carboxylic acid (4-methoxy-4′-methylsulfanyl-biphenyl-3-ylmethyl)-(4-methylamino-cyclohexyl)-amide hydrochloride], the pEC50 with sonic hedgehog pathway [1] and with sonic hedgehog pathway [2] was over 7.30 throughout.
For `CN[C@H]1CC[C@@H](N(Cc2cc(-c3cc[n+]([O-])cc3)ccc2OC)C(=O)c2sc3c(F)ccc(F)c3c2Cl)CC1` [Compound 374, 4-(3-((3-chloro-4,7-difluoro-N-((1s,4s)-4-(methylamino)cyclohexyl)benzo[b]thiophene-2-carboxamido)methyl)-4-methoxyphenyl)pyridine 1-oxide], the pEC50 in the assay with sonic hedgehog pathway [1] and with sonic hedgehog pathway [2] was over 7.30 throughout.
Turning to `COc1ccc(-c2ccncc2)cc1CN(C(=O)c1sc2c(F)ccc(F)c2c1Cl)[C@H]1CC[C@@H](N)CC1` [Compound 375, N-((1r,4r)-4-aminocyclohexyl)-3-chloro-4,7-difluoro-N-(2-methoxy-5-(pyridin-4-yl)benzyl)benzo[b]thiophene-2-carboxamide hydrochloride], the negative logarithm of the EC50 (pEC50) in the assay with sonic hedgehog pathway [1] and in the assay with sonic hedgehog pathway [2] was over 7.30 throughout.
Regarding `CN[C@H]1CC[C@@H](N(Cc2cc(-c3cccc([S+](C)[O-])c3)ccc2OC)C(=O)c2sc3c(F)ccc(F)c3c2Cl)CC1` (stereo partly shown) [Compound 376, 3-Chloro-4,7-difluoro-benzo[b]thiophene-2-carboxylic acid (3′-methanesulfinyl-4-methoxy-biphenyl-3-ylmethyl)-(4-methylamino-cyclohexyl)-amide trifluoroacetate], the pEC50 in the assay on sonic hedgehog pathway [1] and in the assay with sonic hedgehog pathway [2] was over 7.30 throughout.
Turning to `CN[C@H]1CC[C@@H](N(Cc2cc(-c3ccc([S+](C)[O-])cc3)ccc2OC)C(=O)c2sc3c(F)ccc(F)c3c2Cl)CC1` (stereo partly shown) [Compound 377, 3-Chloro-4,7-difluoro-benzo[b]thiophene-2-carboxylic acid (4′-methanesulfinyl-4-methoxy-biphenyl-3-ylmethyl)-(4-methylamino-cyclohexyl)-amide trifluoroacetate], the pEC50 in the assay with sonic hedgehog pathway [1] and in the assay on sonic hedgehog pathway [2] was over 7.30 throughout.
As for `CNC1CCC(N(Cc2cc(-c3cccnc3F)ccc2OC)C(=O)c2sc3c(F)ccc(F)c3c2Cl)CC1` (stereo not shown) [Compound 378, 3-Chloro-4,7-difluoro-benzo[b]thiophene-2-carboxylic acid [5-(2-fluoro-pyridin-3-yl)-2-methoxy-benzyl]-(4-methylamino-cyclohexyl)-amide], the pEC50 with sonic hedgehog pathway [1] and with sonic hedgehog pathway [2] was over 7.30 in each case.
Regarding `CNC1CCC(N(Cc2cc(-c3ccc(F)nc3)ccc2OC)C(=O)c2sc3c(F)ccc(F)c3c2Cl)CC1` (stereo not shown) [Compound 379, 3-Chloro-4,7-difluoro-benzo[b]thiophene-2-carboxylic acid [5-(6-fluoro-pyridin-3-yl)-2-methoxy-benzyl]-(4-methylamino-cyclohexyl)-amide], the pEC50 in the assay on sonic hedgehog pathway [1] and with sonic hedgehog pathway [2] was over 7.30 each time.
`CNC1CCC(N(Cc2cc(-c3cncc(F)c3)ccc2OC)C(=O)c2sc3c(F)ccc(F)c3c2Cl)CC1` (stereo not shown) [Compound 380, 3-Chloro-4,7-difluoro-benzo[b]thiophene-2-carboxylic acid [5-(5-fluoro-pyridin-3-yl)-2-methoxy-benzyl]-(4-methylamino-cyclohexyl)-amide]: the pEC50 in the assay with sonic hedgehog pathway [1] and in the assay on sonic hedgehog pathway [2] was over 7.30 throughout.
Regarding `CN[C@H]1CC[C@@H](N(Cc2cc(-c3cccnc3F)ccc2OC)C(=O)c2sc3cccc(F)c3c2Cl)CC1` [Compound 381], the pEC50 in the assay on sonic hedgehog pathway [1] and in the assay on sonic hedgehog pathway [2] was over 7.30 throughout.
With `CNC1CCC(N(Cc2cc(-c3ccc(F)nc3)ccc2OC)C(=O)c2sc3cccc(F)c3c2Cl)CC1` (stereo not shown) [Compound 382, 3-Chloro-4-fluoro-benzo[b]thiophene-2-carboxylic acid [5-(6-fluoro-pyridin-3-yl)-2-methoxy-benzyl]-(4-methylamino-cyclohexyl)-amide], the pEC50 in the assay with sonic hedgehog pathway [1] and with sonic hedgehog pathway [2] was over 7.30 in each case.
As for `CN[C@H]1CC[C@@H](N(Cc2cc(-c3cncc(F)c3)ccc2OC)C(=O)c2sc3cccc(F)c3c2Cl)CC1` [Compound 383, 3-chloro-4-fluoro-N-(5-(5-fluoropyridin-3-yl)-2-methoxybenzyl)-N-((1s,4s)-4-(methylamino)cyclohexyl)benzo[b]thiophene-2-carboxamide], the pEC50 in the assay with sonic hedgehog pathway [1] and with sonic hedgehog pathway [2] was over 7.30 in each case.
As to `CNC1CCC(N(Cc2cc(-c3ccnc(F)c3)ccc2OC)C(=O)c2sc3c(F)ccc(F)c3c2Cl)CC1` (stereo not shown) [Compound 384, 3-Chloro-4,7-difluoro-benzo[b]thiophene-2-carboxylic acid [5-(2-fluoro-pyridin-4-yl)-2-methoxy-benzyl]-(4-methylamino-cyclohexyl)-amide], the pEC50 in the assay with sonic hedgehog pathway [1] and with sonic hedgehog pathway [2] was over 7.30 throughout.
`CNC1CCC(N(Cc2cc(-c3ccnc(F)c3)ccc2OC)C(=O)c2sc3cccc(F)c3c2Cl)CC1` (stereo not shown) [Compound 385, 3-Chloro-4-fluoro-benzo[b]thiophene-2-carboxylic acid [5-(2-fluoro-pyridin-4-yl)-2-methoxy-benzyl]-(4-methylamino-cyclohexyl)-amide]: the pEC50 with sonic hedgehog pathway [1] and in the assay on sonic hedgehog pathway [2] was over 7.30 in each case.
With `CNC1CCC(N(Cc2cc(-c3ccncc3F)ccc2OC)C(=O)c2sc3c(F)ccc(F)c3c2Cl)CC1` (stereo not shown) [Compound 386, 3-Chloro-4,7-difluoro-benzo[b]thiophene-2-carboxylic acid [5-(3-fluoro-pyridin-4-yl)-2-methoxy-benzyl]-(4-methylamino-cyclohexyl)-amide], the pEC50 with sonic hedgehog pathway [1] and in the assay with sonic hedgehog pathway [2] was over 7.30 each time.
As to `CNC1CCC(N(Cc2cc(-c3ccncc3F)ccc2OC)C(=O)c2sc3cccc(F)c3c2Cl)CC1` (stereo not shown) [Compound 387, 3-Chloro-4-fluoro-benzo[b]thiophene-2-carboxylic acid [5-(3-fluoro-pyridin-4-yl)-2-methoxy-benzyl]-(4-methylamino-cyclohexyl)-amide], the pEC50 with sonic hedgehog pathway [1] and in the assay with sonic hedgehog pathway [2] was over 7.30 throughout.
With `CN[C@H]1CC[C@@H](N(Cc2cc(-c3ccc(S(N)(=O)=O)cc3)ccc2OC)C(=O)c2sc3c(F)ccc(F)c3c2Cl)CC1` [Compound 388, 3-Chloro-4,7-difluoro-benzo[b]thiophene-2-carboxylic acid (4-methoxy-4′-sulfamoyl-biphenyl-3-ylmethyl)-(4-methylamino-cyclohexyl)-amide hydrochloride], the pEC50 with sonic hedgehog pathway [1] and with sonic hedgehog pathway [2] was over 7.30 throughout.
As to `CCS(=O)(=O)c1ccc(-c2ccc(OC)c(CN(C(=O)c3sc4c(F)ccc(F)c4c3Cl)[C@H]3CC[C@@H](NC)CC3)c2)cc1` [Compound 389, 3-Chloro-4,7-difluoro-benzo[b]thiophene-2-carboxylic acid (4′-ethanesulfonyl-4-methoxy-biphenyl-3-ylmethyl)-(4-methylamino-cyclohexyl)-amide hydrochloride], the pEC50 with sonic hedgehog pathway [1] and in the assay on sonic hedgehog pathway [2] was over 7.30 throughout.
Take `COc1ccc(-c2ccc(S(C)(=O)=O)cc2)cc1CN(C(=O)c1sc2c(F)ccc(F)c2c1Cl)[C@H]1CC[C@@H](N)CC1` [Compound 390, 3-Chloro-4,7-difluoro-benzo[b]thiophene-2-carboxylic acid (4-amino-cyclohexyl)-(4′-methanesulfonyl-4-methoxy-biphenyl-3-ylmethyl)-amide hydrochloride]: the pEC50 with sonic hedgehog pathway [1] and in the assay with sonic hedgehog pathway [2] was over 7.30 throughout.
